Test results taken from patent US9540620B2, “Methods and compositions for modulating G-alpha-Q signaling” (The University of North Carolina at Chapel Hill, priority 2012, dated 2017).
Entries after “also recorded” stand apart in the source; their conditions may differ. Values belong to the molecule of their own block, whether it stands above or below them. Ends that are not written are not given here. Peptide text beside a SMILES is read from it. * marks the point of attachment. X1 = CN(C)c1ccc2c(-c3ccc(C(=O)*)cc3C(=O)[O-])c3ccc(=[N+](C)C)cc-3oc2c1

Legend:
Gαq/i = assay: Fluorescence polarization assay in 384 well plates, competition with TAMRA-27-mer; type: binding; settings: 30 μM, 200 nM TAMRA-27-mer, 1.5 μM Gαq/i
Protocol: FIG. 4. Fluorescence polarization assay in 384 well plates. Each well contains 200 nM TAMRA-27-mer and 1.5 μM Gαq/i. Z′-factor determined using 48 wells+/−aluminum fluoride (AlF4). Unlabeled 27-mer (30 μM) added to an additional 48 wells. Coefficient of variance range between 1 and 4 percent.
To begin to develop a high-throughput format suitable for screening large libraries of compounds, the original fluorescence polarization assay was formatted to use microtiter plates (FIG. 4). The initial reconfiguration to use 384-well plates is highly promising, providing a high dynamic range as defined by the difference in fluorescence polarization of the TAMRA-27-mer in the presence of Gαq-GDP either alone or activated with aluminum fluoride. The high dynamic range combined with low variance produced a Z′-factor of approximately 0.8. An assay with a Z′-factor above 0.5 is generally required for useful high-throughput screening^19; a Z′-factor above 0.8 is generally considered excellent. Moreover, the addition of 30 μM of unlabeled 27-mer competed with the TAMRA-27-mer for binding to Gαq leading to an approximately 50 percent decrease in fluorescence polarization.

[1] = target: T1, Gαq activated with aluminum fluoride (Homo sapiens, UniProt P50148); assay: Fluorescence polarization binding of TAMRA-labeled PLC-β3 HTH peptides to Gαq; settings: Gαq-GDP without added aluminum fluoride
T1 sequence (P50148 1-359): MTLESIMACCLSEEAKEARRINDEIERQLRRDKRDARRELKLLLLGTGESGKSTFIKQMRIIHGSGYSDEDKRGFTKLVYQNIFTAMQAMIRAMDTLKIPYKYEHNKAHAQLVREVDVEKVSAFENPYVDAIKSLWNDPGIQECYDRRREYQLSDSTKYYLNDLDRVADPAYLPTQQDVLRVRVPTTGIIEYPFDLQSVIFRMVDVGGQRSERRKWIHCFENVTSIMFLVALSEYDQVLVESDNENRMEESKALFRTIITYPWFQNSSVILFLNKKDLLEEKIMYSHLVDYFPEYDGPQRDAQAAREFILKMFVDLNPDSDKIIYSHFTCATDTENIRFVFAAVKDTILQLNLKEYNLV
Protocol: (§1) FIGS. 6A-C. Quantification of Gαq binding to peptides corresponding to the HTH of PLβ3. […] The structures of PLCβ3 (3 OHM) and p63RhoGEF (2RGN) bound to Gαq were superimposed and a single Gαq is shown. Immediately below is shown the sequence alignment of PLCβ3 (SEQ ID NO:37) and p63RhoGEF (SEQ ID NO:41) encompassing the helix-turn-helix. Underlined residues are labeled in the structure. […] (FIG. 6C) Increasing concentrations of unlabeled PLC-β3 were added to a solution of labeled 25-mer (400 nM) and Gαq (4 μM). KD and IC50 values were derived from three independent experiments.

activated Gαs = activated Gαs (Homo sapiens, UniProt P63092); assay: Fluorescence polarization binding of TAMRA-labeled peptide to activated Gαs
activated GαI = assay: Fluorescence polarization binding of TAMRA-labeled peptide to activated Gαi
activated Gαo = activated Gαo (Homo sapiens, UniProt P09471); assay: Fluorescence polarization binding of TAMRA-labeled peptide to activated Gαo
[2] = test system: G-alpha-q mediated activation of PLC-beta; assay: 5HT2A/DOI-stimulated [3H]inositol phosphate accumulation in transiently transfected HEK293 cells; type: cell-based; settings: DOI 1-2 microMolar (FIG. 10)
Protocol: FIG. 10. […] HEK293 cells transfected with 100 ng of 5HT2A and stimulated with 1-2 microMolar of DOI (Synonym: (±)-DOI, (±)-1-(2,5-Dimethoxy-4-iodophenyl)-2-aminopropane hydrochloride, (±)-2,5-Dimethoxy-4-iodoamphetamine hydrochloride) were assayed for [^3H]inositol phosphate accumulation. The control for no DOI stimulation for the CFP-HTH-YFP sample is shown as dashed line (A) and triangle (B). Where indicated HEK293 cells were transfected with varying amounts of PLC constructs.
This experiment is a proof of principle to inhibit G-alpha-q with adeno-associated virus (AAV) to treat uveal melanoma patients. Future experiments will use a retrovirus containing the 27 residue helix-turn-helix in primary uveal melanoma cells to induce apoptosis and inhibit the progression of the uveal melanoma.
The 27mer construct used is between two fluorescent proteins YFP and CFP yielding: YFP-HTH(27mer)-CFP. The 27mer sequence is
A CaaX box was attached to the YFP-HTH(27mer)-CFP to keep this molecule at the membrane. The CaaX box sequence is at the very C-terminal end and are the residues CAIL (SEQ ID NO:36).

Gαq = target: T2, Gαq (Homo sapiens, UniProt P50148); assay: Fluorescence polarization competition: unlabeled PLC-β3 against TAMRA-labeled peptide for Gαq; type: binding
T2 sequence (P50148 1-359): T1 sequence (P50148 1-359)
Protocol: FIGS. 3A and 3B. TAMRA-27-mer and PLC-β3 directly compete for Gαq. (FIG. 3A) Increasing concentrations of PLC-β3 were added to a solution of TAMRA-27-mer (400 nM) and Gαq (800 nM). The IC50 value is derived from three independent experiments. (FIG. 3B) Phospholipase activity of PLC-β3 activated by Gαq using lipid vesicles and inhibited by increasing concentrations of TAMRA-27-mer.
as §1
Fluorescence polarization will be used to monitor disruption of complex formation between the 27-mer and active Gαq to identify compounds that directly compete with the complex. It is expected that the majority of these compounds will sit within the canonical effector-binding site of Gαq to prevent the binding of peptide—and by extension, prevent the binding of effectors. However, before using this assay format to identify inhibitors of complex formation it was necessary to insure that peptides corresponding to the HTH of PLC-β3 bound to Gαq. […] These experiments strongly support that peptides corresponding to the HTH of PLC-β3 directly bind to the effector pocket of Gαq and can be used as surrogates of effectors in assays of complex formation with active Gαq.
The most promising peptide consisted of 25 residues (TAMRA-25-mer) spanning the entire HTH and bound to G-alpha-q with appreciable affinity (Kd˜6 microMolar).

activated Gαs, sequence (P63092 whole entry): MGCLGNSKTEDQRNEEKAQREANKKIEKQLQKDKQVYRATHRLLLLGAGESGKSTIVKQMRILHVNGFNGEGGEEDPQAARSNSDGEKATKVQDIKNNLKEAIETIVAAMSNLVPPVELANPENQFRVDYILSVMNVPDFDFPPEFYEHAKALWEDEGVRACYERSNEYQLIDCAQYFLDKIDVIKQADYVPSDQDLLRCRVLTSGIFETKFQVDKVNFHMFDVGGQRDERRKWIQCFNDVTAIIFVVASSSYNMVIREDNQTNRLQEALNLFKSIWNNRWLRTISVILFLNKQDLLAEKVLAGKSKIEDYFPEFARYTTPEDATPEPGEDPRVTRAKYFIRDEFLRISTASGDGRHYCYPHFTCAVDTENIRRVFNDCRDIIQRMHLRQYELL
activated Gαo, sequence (P09471 whole entry): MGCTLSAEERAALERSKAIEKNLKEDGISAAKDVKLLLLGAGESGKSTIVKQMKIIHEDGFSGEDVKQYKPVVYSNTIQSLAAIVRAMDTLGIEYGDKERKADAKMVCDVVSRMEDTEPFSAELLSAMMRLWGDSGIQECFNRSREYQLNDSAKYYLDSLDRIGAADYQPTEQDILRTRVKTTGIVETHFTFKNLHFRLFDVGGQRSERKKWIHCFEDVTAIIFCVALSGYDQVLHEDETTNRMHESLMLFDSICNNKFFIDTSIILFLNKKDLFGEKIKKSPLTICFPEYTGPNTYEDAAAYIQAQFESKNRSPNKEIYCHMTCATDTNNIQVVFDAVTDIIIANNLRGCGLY

Molecule: HQDYAEALANPIKHVSL-Nle-DQRARQLAA [unlabeled 27-mer]
decrease in fluorescence polarization (Gαq/i): approximately 50%

Molecule: CC[C@H](C)[C@H](NC(=O)[C@H](CC(C)C)NC(=O)[C@H](C)NC(=O)[C@H](CCC(=O)O)NC(=O)[C@H](C)NC(=O)[C@H](Cc1ccc(O)cc1)NC(=O)[C@H](CC(=O)O)NC(=O)[C@H](CCC(N)=O)NC(=O)[C@H](Cc1c[nH]cn1)NC(=O)c1ccc(-c2c3ccc(=[N+](C)C)cc-3oc3cc(N(C)C)ccc23)c(C(=O)[O-])c1)C(=O)N[C@@H](CC(N)=O)C(=O)N1CCC[C@H]1C(=O)N[C@H](C(=O)N[C@@H](CCCCN)C(=O)N[C@@H](Cc1c[nH]cn1)C(=O)N[C@H](C(=O)N[C@@H](CO)C(=O)N[C@@H](CC(C)C)C(=O)N[C@@H](CCSC)C(=O)N[C@@H](CC(=O)O)C(=O)N[C@@H](CCC(N)=O)C(=O)N[C@@H](CCCNC(=N)N)C(=O)N[C@@H](C)C(=O)N[C@@H](CCCNC(=N)N)C(=O)N[C@@H](CCC(N)=O)C(=O)N[C@@H](CC(C)C)C(=O)O)C(C)C)[C@@H](C)CC [TAMRA-25-mer] (X1-HQDYAEALINPIKHVSLMDQRARQL-OH; C-terminus assumed)
complex formation with inactive Gαq-GDP / dependence on aluminum fluoride activation [1]: dependent on the activation of G-alpha-q with aluminum fluoride; also recorded: dependent on the activation of Gαq with aluminum fluoride
binding to activated Gαs (activated Gαs): failed to bind; also recorded: neither activated Gαs, GαI, nor Gαo bound the peptide
binding to activated Gαi (activated GαI): failed to bind; also recorded: neither activated Gαs, GαI, nor Gαo bound the peptide
binding to activated Gαo (activated Gαo): failed to bind; also recorded: neither activated Gαs, GαI, nor Gαo bound the peptide

Molecule: CFP-27mer(I860A)-YFP: 27mer HQDYAEALANPIKHVSLMDQRARQLAA between fluorescent proteins YFP and CFP, C-terminal CaaX box CAIL, expressed by transient transfection (HQDYAEALANPIKHVSLMDQRARQLAACAIL; also: fused between fluorescent proteins YFP and CFP)
inhibition of G-alpha-q signaling after transient transfection [2]: inhibits G-alpha-q mediated activation of PLC-beta
inhibition of G-alpha-q signaling after transient transfection ([2]; listed as 27 residue helix-turn-helix peptide): inhibited G-alpha-q signaling

competition with the 27-mer for binding to Gαq (Gαq; TAMRA-27-mer 400 nM, Gαq 800 nM): could not compete
effect on TAMRA-25-mer binding to Gαq (Gαq; at concentrations as high as 35 μM): no effect
B1: PLC-β3(L859E): mutant full-length PLC-β3 with single substitution L859E in its HTH that does not bind Gαq (protein)
chain: AGAQPGVHALQLEPPTVVETLRRGSKFIKWDEETSSRNLVTLRVDPNGFFLYWTGPNMEVDTLDISSIRDTRTGRYARLPKDPKIREVLGFGGPDARLEEKLMTVVSGPDPVNTVFLNFMAVQDDTAKVWSEELFKLAMNILAQNASRNTFLRKAYTKLKLQVNQDGRIPVKNILKMFSADKKRVETALESCGLKFNRSESIRPDEFSLEIFERFLNKLCLRPDIDKILLEIGAKGKPYLTLEQLMDFINQKQRDPRLNEVLYPPLRPSQARLLIEKYEPNQQFLERDQMSMEGFSRYLGGEENGILPLEALDLSTDMTQPLSAYFINSSHNTYLTAGQLAGTSSVEMYRQALLWGCRCVELDVWKGRPPEEEPFITHGFTMTTEVPLRDVLEAIAETAFKTSPYPVILSFENHVDSAKQQAKMAEYCRSIFGDALLIEPLDKYPLAPGVPLPSPQDLMGRILVKNKKRHRPSAGGPDSAGRKRPLEQSNSALSESSAATEPSSPQLGSPSSDSCPGLSNGEEVGLEKPSLEPQKSLGDEGLNRGPYVLGPADREDEEEDEEEEEQTDPKKPTTDEGTASSEVNATEEMSTLVNYIEPVKFKSFEAARKRNKCFEMSSFVETKAMEQLTKSPMEFVEYNKQQLSRIYPKGTRVDSSNYMPQLFWNVGCQLVALNFQTLDVAMQLNAGVFEYNGRSGYLLKPEFMRRPDKSFDPFTEVIVDGIVANALRVKVISGQFLSDRKVGIYVEVDMFGLPVDTRRKYRTRTSQGNSFNPVWDEEPFDFPKVVLPTLASLRIAAFEEGGKFVGHRILPVSAIRSGYHYVCLRNEANQPLCLPALLIYTEASDYIPDDHQDYAEAEINPIKHVSLMDQRARQLAALIGESEAQAGQETCQDTQSQQLGSQPSSNPTPSPLDASPRRPPGPTTSPASTSLSSPGQRDDLIASILSEVAPTPLDELRGHKALVKLRSRQERDLRELRKKHQRKAVTLTRRLLDGLAQAQAEGRCRLRPGALGGAADVEDTKEGEDEAKRYQEFQNRQVQSLLELREAQVDAEAQRRLEHLRQALQRLREVVLDANTTQFKRLKEMNEREKKELQKILDRKRHNSISEAKMRDKHKKEAELTEINRRHITESVNSIRRLEEAQKQRHDRLVAGQQQVLQQLAEEEPKLLAQLAQECQEQRARLPQEIRRSLLGEMPEGLGDGPLVACASNGHAPGSSGHLSGADSESQEENTQL
